Source: patent US12558342B2, “2-[2-({12,12-dimethyl-4-oxo-6-phenyl-3,11-dioxatricyclo[8.4.0.0,2,7]tetradeca-1,5,7,9-tetraen-8-yl}oxy)acetamido]benzamide and derivatives as inhibitor of clock:bmal1 interaction for the treatment of circadian rhythm diseases and disorders” (KOC UNIVERSITESI, priority 2019, dated 2026)

How the values were obtained:
Per1::dluc NIH 3T3 cells = assay: Real-time monitoring of circadian rhythm, Per1::dluc NIH 3T3; format: cell-based, mouse
Method: We used Bmal1::dluc U2-OS and Per1::dluc NIH 3T3, and continuously monitored the bioluminescence to record circadian rhythm. This experiment was performed in 96-well plates (triplicates) and 35-mm dishes (duplicates) in the secondary screen and detailed characterization steps respectively. Briefly, cells were seeded to reach confluency. A day after, the medium was replaced with DMEM containing 0.1 μM Dexamethasone to synchronize cells. […] The 96-well plates were covered and bioluminescence was monitored by Synergy H1 Hybrid Multi-Mode Reader every 32 minutes. […] Bioluminescence was recorded every 10 minutes for 4-6 days. […] The first day's data was excluded from the analysis due to transient perturbations of luminescence after the medium change.
We used Bmal1::dluc U2-OS and Per1::dluc NIH 3T3, and continuously monitored the bioluminescence to record circadian rhythm. […] The 96-well plates were covered and bioluminescence was monitored by Synergy H1 Hybrid Multi-Mode Reader every 32 minutes. […] Bioluminescence was recorded every 10 minutes for 4-6 days. […] The first day's data was excluded from the analysis due to transient perturbations of luminescence after the medium change.

CLOCK = target: T1, CLOCK (Homo sapiens, UniProt O15516); assay: Cytosol-nuclear fractionation of U2OS cells, CLOCK; format: cell-based; conditions: 20 μM, two days
T1 sequence (O15516 1-846): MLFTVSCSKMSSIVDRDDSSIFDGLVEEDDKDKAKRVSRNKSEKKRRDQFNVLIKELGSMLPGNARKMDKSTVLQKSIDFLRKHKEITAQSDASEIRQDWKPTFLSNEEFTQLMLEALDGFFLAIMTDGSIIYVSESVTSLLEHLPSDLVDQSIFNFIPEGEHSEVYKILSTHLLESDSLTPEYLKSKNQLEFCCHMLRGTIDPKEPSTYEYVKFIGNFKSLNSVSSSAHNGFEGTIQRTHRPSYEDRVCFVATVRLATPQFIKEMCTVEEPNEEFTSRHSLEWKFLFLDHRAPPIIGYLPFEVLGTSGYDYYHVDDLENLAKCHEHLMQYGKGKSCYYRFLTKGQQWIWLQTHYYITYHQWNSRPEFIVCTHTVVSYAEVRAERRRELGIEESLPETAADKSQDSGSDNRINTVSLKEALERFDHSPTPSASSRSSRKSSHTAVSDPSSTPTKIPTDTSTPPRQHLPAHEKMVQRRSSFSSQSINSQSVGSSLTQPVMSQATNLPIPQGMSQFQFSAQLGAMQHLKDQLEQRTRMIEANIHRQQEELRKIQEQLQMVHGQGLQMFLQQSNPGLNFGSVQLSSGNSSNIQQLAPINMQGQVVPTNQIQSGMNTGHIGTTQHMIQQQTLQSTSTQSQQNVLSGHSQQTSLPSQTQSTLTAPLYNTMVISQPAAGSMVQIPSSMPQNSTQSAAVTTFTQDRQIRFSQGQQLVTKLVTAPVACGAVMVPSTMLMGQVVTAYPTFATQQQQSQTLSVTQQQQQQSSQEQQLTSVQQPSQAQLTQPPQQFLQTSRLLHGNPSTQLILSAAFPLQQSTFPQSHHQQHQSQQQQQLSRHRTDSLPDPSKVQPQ
Method: U2 OS cells treated with 20 μM CLK8 and 0.5% DMSO were used for fractionation analysis. The 4×10^5 was suspended in 500 ul cytosolic lysis buffer (10 mM HEPES pH 7,9, 10 mM KCl, 0.1 mM EDTA, 0.05% NP40 with protease inhibitors) and incubated on ice for 10 minutes. The lysate was centrifuged for 3 minutes at 3000 rpm at 4° C. The resulting supernatant was centrifuged one more time and supernatant collected as cytosolic fraction. On the other hand, the resulting pellet from lysate centrifugation was suspended in nuclear lysis buffer (20 mM HEPES pH 7.9, 0.4 M NaCl, 1 mM EDTA, 10% glycerol with protease inhibitors) and sonicated 2 times 10 seconds with 60% power. After centrifuge at 15 000 g for 5 minutes at 4° C., supernatant was collected as nuclear fraction. Collected fractions were used for Western Blot analysis. Fractionation efficiency was checked with Western Blot by using tubulin (Sigma T9026) as cytosolic marker and Histone-H3 (abcam ab1791) as nuclear marker.

SMILES: CC1(C)CCc2c(cc(OCC(=O)Nc3ccccc3C(N)=O)c3c(-c4ccccc4)cc(=O)oc23)O1 [CLK8, 2-[2-({12,12-dimethyl-4-oxo-6-phenyl-3,11-dioxatricyclo [8.4.0.0,2,7]tetradeca-1,5,7,9-tetraen-8-yl}oxy)acetamido] benzamide]
- period of circadian rhythm (Per1::dluc NIH 3T3 cells): no period changes
- amplitude of circadian rhythm (Per1::dluc NIH 3T3 cells; dose dependent): enhances the amplitude
- level of CLOCK in the nucleus (CLOCK): reduced
